Experimental data taken from US5563292A, “Lipoxygenase inhibitors” (Schering Corporation, priority 1990, dated 1996).
Read-outs that look alike come from different tables or passages of the source.

Key:
5-Lipoxygenase (5-LO) = molecular target: T1, 5-Lipoxygenase (5-LO) (Homo sapiens, UniProt P09917); test: 5-Lipoxygenase Assay with Human Neutrophils (A23187-stimulated 5-HETE and LTB4 production); assay type: cell-based; details: [14C] arachidonic acid 9 μM, A23187 1 μM
T1 construct: Human polymorphonuclear leukocytes (neutrophils) were obtained from normal healthy volunteers by venipuncture; endogenous in cells; host or cells: human peripheral blood neutrophils (polymorphonuclear leukocytes) from healthy volunteers, intact cells
T1 sequence (P09917 1-674): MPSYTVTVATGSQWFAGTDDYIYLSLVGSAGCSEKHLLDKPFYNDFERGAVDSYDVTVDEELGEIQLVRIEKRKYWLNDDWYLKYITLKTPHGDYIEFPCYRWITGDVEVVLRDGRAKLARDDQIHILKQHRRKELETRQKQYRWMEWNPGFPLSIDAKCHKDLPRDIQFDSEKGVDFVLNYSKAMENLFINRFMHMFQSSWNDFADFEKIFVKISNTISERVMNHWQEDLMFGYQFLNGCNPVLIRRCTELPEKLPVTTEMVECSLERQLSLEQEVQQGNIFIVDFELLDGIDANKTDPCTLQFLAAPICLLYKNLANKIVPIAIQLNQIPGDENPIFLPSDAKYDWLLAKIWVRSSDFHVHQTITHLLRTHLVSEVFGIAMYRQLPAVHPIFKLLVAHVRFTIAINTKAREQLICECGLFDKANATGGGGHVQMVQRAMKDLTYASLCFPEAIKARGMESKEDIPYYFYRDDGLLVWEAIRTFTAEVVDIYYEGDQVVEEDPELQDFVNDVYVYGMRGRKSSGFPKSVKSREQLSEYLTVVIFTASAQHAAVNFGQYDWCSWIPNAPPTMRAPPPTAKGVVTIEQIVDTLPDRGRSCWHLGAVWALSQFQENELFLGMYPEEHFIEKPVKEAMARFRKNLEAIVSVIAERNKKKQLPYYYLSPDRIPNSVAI
Protocol: 5-Lipoxygenase Assay with Human Neutrophils
Human polymorphonuclear leukocytes (neutrophils) were obtained from normal healthy volunteers by venipuncture and collected with heparin anticoagulant. Neutrophils were isolated by Dextran/Ficol sedimentation as described (Billah et al., J. Biol. Chem. 260, 6899-6906 (1985)). In brief, 30 ml of blood was mixed with 5 ml of dextran (Sigma) solution and kept at 37 C for 30 min. The upper white cell-rich layer was removed and 10 ml was layered on 9 ml of Ficol-Pague solution (Pharmacia) and centrifuged at 280×g for 10 min. at 5° C. The supernatant was removed and the neutrophil pellet was resuspended in HEPES buffer containing 25 mM N-2-hydroxyethylpiperazine-N^1 -2-ethanesulfonic acid (HEPES), 125 mM NaCl, 2.5 mM KCl, 0.7 mM MgCl2, […] 10 mM glucose at pH 7.4. The red cells in the suspension were lysed by hypotonic shock. The neutrophils were washed by centrifugation in HEPES buffer two times and finally resuspended at a concentration of 20×10^6 cells/ml in the presence of 1 mM CaCl2.
Neutrophils (0.2 ml of suspension) were preincubated with dimethylsulfonxide (DMSO) vehicle with or without test compound (1 μl) for 4 minutes then incubated for 5 minutes with [^14 C] arachidonic acid (Amersham, 59 Ci/mole) at a 9 μM final concentration, and the calcium ionophore A23187 (Calbiochem) at a 1 μM final concentration. These stimulants were added in 10 μl of water:ethanol (9:1). The reaction was stopped by addition of methanol (0.4 ml), and cellular debris was removed by centrifugation. Aliquots (100 ul) of the incubations were run on a Waters two pump HPLC system fitted with a DuPont Zorbax ODS, 5μ, […] Reliance Cartridge column and C18 "Guard Pak". The column was initially eluted at 2 ml/min with 80% of the mixture water:methanol:acetic acid (46:54:0.08) containing 1 mM EDTA adjusted to pH 6.0 with ammonium hydroxide (Pump A) and 20% methanol (Pump B). At 10 minutes, a linear gradient to reach 100% methanol (Pump B) at 27 minutes was established. Between 27 and 28 minutes, methanol was exchanged for the initial eluting solvent and by 35 minutes the column had been reequilibrated for the next sample. The effluent was analyzed by a continuous flow radioactivity monitor (model ROMONA-D) interfaced with a Hewlett Packard Lab Automation System for quantitation of radioactive products. These were predominantly leukotriene B4 (LTB4) which eluted at 7 minutes, and 5-hydroxyeicosatetraenoic acid (5-HETE) which eluted at 20 minutes.

mouse ear = test: Arachidonic Acid Mouse Ear Test; assay type: in vivo; details: topical, 30 minutes prior to arachidonic acid, biopsy 1 hour after challenge
Protocol: Charles River, female, CD, (SD) BR mice, 6 weeks old, are caged 8/group and allowed to acclimate 1-3 weeks prior to use.
Arachidonic acid (AA) is dissolved in reagent grade acetone (2 mg/0.01 ml) and stored at -20° C. for a maximum of 1 week prior to use. Inflammatory reactions are induced by applying 10 μl of AA to both surfaces of one ear ([…] total).
Test drugs are dissolved in either reagent grade acetone or aqueous ethanol (only if insoluble in acetone) at the same doses selected by Opas et al., Fed. Proc. 43, Abstract 2983, p. 1927 (1984) and Young et al., J. Invest. Dermatol. 82, pp. 367-371 (1984). These doses are employed to ensure maximum responses and to overcome any difference in topical absorption which could occur with any drug applied in an aqueous ethanol vehicle. The test drug is applied 30 minutes prior to challenge with AA.
The severity of the inflammation is measured as a function of increased ear weight. A 6 mm punch biopsy is removed 1 hour after AA challenge and weighed to the nearest 0.1 mg. Mean±standard error and all possible comparisons are made via Duncan's Multiple Range Statistic.

[1] = read-out: 5-LO inhibition, % inhibition 5-HETE
[2] = read-out: 5-LO inhibition, % inhibition LTB4

| inhibition at 15 µM (5-Lipoxygenase (5-LO); [1]) | inhibition at 15 µM (5-Lipoxygenase (5-LO); [2]) | inhibition at 5 µM (5-Lipoxygenase (5-LO); dose 5 μM) | SMILES | Mouse ear assay, % inhibition (ear weight) (mouse ear; dose 1.0 mg/ear) | Mouse ear assay, % inhibition (ear weight) (mouse ear; dose 0.5 mg/ear) |
| --- | --- | --- | --- | --- | --- |
| 99% | 96% | 63% | COc1cc(OC)cc(C(C)(C)CC(C)(CCCC(=O)NO)c2cc(OC)cc(OC)c2)c1 (stereo not drawn) [Formula 46] |  |  |
| 33% | 14% |  | COc1cc(OC)cc(C(C)(C)CC(C)(CCCC(=O)O)c2cc(OC)cc(OC)c2)c1 (stereo not drawn) [Formula 45] |  |  |

The next lines start with the compound.

| SMILES | inhibition at 15 µM (5-Lipoxygenase (5-LO); [1]) | inhibition at 15 µM (5-Lipoxygenase (5-LO); [2]) | inhibition at 5 µM (5-Lipoxygenase (5-LO); dose 5 μM) | Mouse ear assay, % inhibition (ear weight) (mouse ear; dose 1.0 mg/ear) | Mouse ear assay, % inhibition (ear weight) (mouse ear; dose 0.5 mg/ear) |
| --- | --- | --- | --- | --- | --- |
| COc1cc(OC)cc(C(C)(C)CC(C)(CCCCO)c2cc(OC)cc(OC)c2)c1 (stereo not drawn) [Formula 41, 5,7-dimethyl-5,7-bis(3,5-dimethoxyphenyl)-1-octanol] | 99% | 97% |  | 72% |  |
| COc1cc(OC)cc(C(C)(C)CC(C)(CCCC=O)c2cc(OC)cc(OC)c2)c1 (stereo not drawn) [Formula 43] | 97% | 97% |  |  |  |
| COc1cc(OC)cc(C(C)(C)CC(C)(CCCCOC(C)=O)c2cc(OC)cc(OC)c2)c1 (stereo not drawn) [Formula 42] | 95% | 100% |  |  | 40% |
| COC(=O)CCCC(C)(CC(C)(C)c1cc(OC)cc(OC)c1)c1cc(OC)cc(OC)c1 (stereo not drawn) [Formula 44] | 98% | 100% |  |  |  |
